# Structures can show the parent of a compound that is named as a salt.
# Target: T1, human TRPM8 (Homo sapiens, UniProt Q7Z2W7)
# T1 construct: expressed in transfected cells; host or cells: Chinese hamster ovary (CHO) cells, T-REx tetracycline-inducible expression system (Invitrogen); co-transfected with pcDNA3.1 aequorin
# Experiment: Luminescence readout assay for measuring intracellular calcium (aequorin, CHO cells expressing human TRPM8; icilin, L-menthol or cold activation)
# Assay type: cell-based
# Conditions: CHO cells expressing human TRPM8, icilin activation (1 μM), aequorin luminescence; read-out: hTRPM8 IC50
# Method in brief: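 Activation was by 1 μM icilin, 100 μM L-menthol (test compound 2.5 min ahead) or cold buffer below 10° C (compound 1 min ahead). Calcium rise measured as aequorin luminescence in CHO cells with tetracycline-inducible human TRPM8.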
# T1 sequence (Q7Z2W7 whole entry): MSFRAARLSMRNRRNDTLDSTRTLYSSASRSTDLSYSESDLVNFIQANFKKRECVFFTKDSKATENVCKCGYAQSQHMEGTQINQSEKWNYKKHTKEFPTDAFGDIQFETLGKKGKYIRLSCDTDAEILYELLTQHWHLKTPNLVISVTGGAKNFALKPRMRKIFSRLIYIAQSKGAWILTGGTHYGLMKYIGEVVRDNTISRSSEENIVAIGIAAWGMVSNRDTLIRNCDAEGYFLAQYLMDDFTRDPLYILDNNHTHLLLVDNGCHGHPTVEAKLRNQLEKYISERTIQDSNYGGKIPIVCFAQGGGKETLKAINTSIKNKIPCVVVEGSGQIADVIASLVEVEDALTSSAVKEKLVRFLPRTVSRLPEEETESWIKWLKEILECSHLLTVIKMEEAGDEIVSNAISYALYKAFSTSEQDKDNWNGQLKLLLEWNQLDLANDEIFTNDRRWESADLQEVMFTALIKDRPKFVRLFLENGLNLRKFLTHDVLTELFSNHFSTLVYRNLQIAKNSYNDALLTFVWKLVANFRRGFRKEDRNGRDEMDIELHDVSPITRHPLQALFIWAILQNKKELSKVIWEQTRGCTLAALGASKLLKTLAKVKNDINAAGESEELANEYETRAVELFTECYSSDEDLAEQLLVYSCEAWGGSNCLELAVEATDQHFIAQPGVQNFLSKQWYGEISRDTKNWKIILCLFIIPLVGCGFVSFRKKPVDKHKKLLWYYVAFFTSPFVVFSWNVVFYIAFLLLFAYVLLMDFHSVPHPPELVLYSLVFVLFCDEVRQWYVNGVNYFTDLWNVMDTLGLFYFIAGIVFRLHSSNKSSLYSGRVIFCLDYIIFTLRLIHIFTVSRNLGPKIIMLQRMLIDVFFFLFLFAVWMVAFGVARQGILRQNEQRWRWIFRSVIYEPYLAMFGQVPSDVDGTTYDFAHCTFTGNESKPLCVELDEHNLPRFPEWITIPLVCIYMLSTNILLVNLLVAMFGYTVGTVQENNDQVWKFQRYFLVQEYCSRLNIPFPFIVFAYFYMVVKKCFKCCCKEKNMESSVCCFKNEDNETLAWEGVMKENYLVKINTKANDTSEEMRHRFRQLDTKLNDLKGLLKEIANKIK
row,Structure (SMILES),IC50
1,"O=C(N[C@]1(c2ccc(OC(F)(F)F)cc2)CCOc2cccnc21)c1cnc2ccccc2n1 [Example 255, (S)-N-(4-(4-(trifluoromethoxy)phenyl)-3,4-dihydro-2H-pyrano[3,2-b]pyridin-4-yl)quinoxaline-2-carboxamide formate]",9 nM
2,"Cn1c(C(=O)N[C@]2(c3ccc(OC(F)(F)F)cc3)CCOc3cccnc32)cc2ccccc21 [Example 256, (S)-1-methyl-N-(4-(4-(trifluoromethoxy)phenyl)-3,4-dihydro-2H-pyrano[3,2-b]pyridin-4-yl)-1H-indole-2-carboxamide formate]",48 nM
3,"Cn1cc(C(=O)N[C@]2(c3ccc(OC(F)(F)F)cc3)CCOc3cccnc32)c2ccccc21 [Example 257, (S)-1-methyl-N-(4-(4-(trifluoromethoxy)phenyl)-3,4-dihydro-2H-pyrano[3,2-b]pyridin-4-yl)-1H-indole-3-carboxamide formate]",59 nM
4,"O=C(N[C@]1(c2ccc(OC(F)(F)F)cc2)CCOc2cccnc21)C1=Cc2ccccc2OC1 [Example 259, (S)-N-(4-(4-(trifluoromethoxy)phenyl)-3,4-dihydro-2H-pyrano[3,2-b]pyridin-4-yl)-2H-chromene-3-carboxamide formate]",88 nM
5,"Cn1c(C(=O)N[C@]2(c3ccc(OC(F)(F)F)cc3)CCOc3cccnc32)nc2ccccc21 [Example 260, (S)-1-methyl-N-(4-(4-(trifluoromethoxy)phenyl)-3,4-dihydro-2H-pyrano[3,2-b]pyridin-4-yl)-1H-benzo[d]imidazole-2-carboxamide formate]",32 nM
6,"Cn1ncc2c(C(=O)N[C@]3(c4ccc(OC(F)(F)F)cc4)CCOc4cccnc43)cccc21 [Example 261, (S)-1-methyl-N-(4-(4-(trifluoromethoxy)phenyl)-3,4-dihydro-2H-pyrano[3,2-b]pyridin-4-yl)-1H-indazole-4-carboxamide formate]",32 nM
7,"Cn1cc2c(C(=O)N[C@]3(c4ccc(OC(F)(F)F)cc4)CCOc4cccnc43)cccc2n1 [Example 264, (S)-2-methyl-N-(4-(4-(trifluoromethoxy)phenyl)-3,4-dihydro-2H-pyrano[3,2-b]pyridin-4-yl)-2H-indazole-4-carboxamide formate]",74 nM
8,"O=C(N[C@]1(c2ccc(OC(F)(F)F)cc2)CCOc2cccnc21)c1ccc2nsnc2c1 [Example 269, (S)-N-(4-(4-(trifluoromethoxy)phenyl)-3,4-dihydro-2H-pyrano[3,2-b]pyridin-4-yl) benzo[c][1,2,5] thiadiazole-5-carboxamide formate]",24 nM
9,"O=C(N[C@]1(c2ccc(OC(F)(F)F)cc2)CCOc2cccnc21)c1ccc(-c2cnco2)cc1 [Example 273, (S)-4-(oxazol-5-yl)-N-(4-(4-(trifluoromethoxy)phenyl)-3,4-dihydro-2H-pyrano[3,2-b]pyridin-4-yl)benzamide formate]",19 nM
10,"Cc1nc(-c2cccc(C(=O)N[C@]3(c4ccc(OC(F)(F)F)cc4)CCOc4cccnc43)c2)no1 [Example 275, (S)-3-(5-methyl-1,2,4-oxadiazol-3-yl)-N-(4-(4-(trifluoromethoxy)phenyl)-3,4-dihydro-2H-pyrano[3,2-b]pyridin-4-yl)benzamide formate]",34 nM
11,"Cc1nc(-c2ccc(C(=O)N[C@]3(c4ccc(OC(F)(F)F)cc4)CCOc4cccnc43)cc2)no1 [Example 276, (S)-4-(5-methyl-1,2,4-oxadiazol-3-yl)-N-(4-(4-(trifluoromethoxy)phenyl)-3,4-dihydro-2H-pyrano[3,2-b]pyridin-4-yl)benzamide formate]",16 nM
12,"O=C(N[C@]1(c2ccc(OC(F)(F)F)cc2)CCOc2cccnc21)c1cccc(N2CCCC2=O)c1 [Example 277, (S)-3-(2-oxopyrrolidin-1-yl)-N-(4-(4-(trifluoromethoxy)phenyl)-3,4-dihydro-2H-pyrano[3,2-b]pyridin-4-yl)benzamide formate]",85 nM
13,"COc1ccc2c(c1)C=C(C(=O)N[C@]1(c3ccc(OC(F)(F)F)cc3)CCOc3cccnc31)CO2 [Example 278, (S)-6-methoxy-N-(4-(4-(trifluoromethoxy)phenyl)-3,4-dihydro-2H-pyrano[3,2-b]pyridin-4-yl)-2H-chromene-3-carboxamide fonnate]",68 nM
14,"CCOC(=O)c1nc(C(=O)N[C@]2(c3ccc(OC(F)(F)F)c(F)c3)CCOc3cccnc32)cs1 [Example 279, (S)-ethyl 4-((4-(3-fluoro-4-(trifluoromethoxy)phenyl)-3,4-dihydro-2H-pyrano[3,2-b]pyridin-4-yl)carbamoyl) thiazole-2-carboxylate]",53 nM
15,"COC(=O)c1cccc(C(=O)N[C@]2(c3ccc(OC(F)(F)F)c(F)c3)CCOc3cccnc32)c1 [Example 280, (S)-methyl 3-((4-(3-fluoro-4-(trifluoromethoxy)phenyl)-3,4-dihydro-2H-pyrano[3,2-b]pyridin-4-yl)carbamoyl) benzoate]",26 nM
16,"O=C(N[C@]1(c2ccc(OC(F)(F)F)c(F)c2)CCOc2cccnc21)c1ccc(-c2nn[nH]n2)cn1 [Example 281, (S)—N-(4-(3-fluoro-4-(trifluoromethoxy)phenyl)-3,4-dihydro-2H-pyrano[3,2-b]pyridin-4-yl)-5-(2H-tetrazol-5-yl)picolinamide]",51 nM
17,"O=C(N[C@]1(c2ccc(OC(F)(F)F)c(F)c2)CCOc2cccnc21)c1ccc(-c2ncon2)cn1 [Example 282, (S)—N-(4-(3-fluoro-4-(trifluoromethoxy)phenyl)-3,4-dihydro-2H-pyrano[3,2-b]pyridin-4-yl)-5-(1,2,4-oxadiazol-3-yl)picolinamide]",7 nM

# Further molecules by falling IC50, results first:
row,IC50,Structure (SMILES)
1,189 nM,"COc1cc2cc(C(=O)N[C@]3(c4ccc(OC(F)(F)F)cc4)CCOc4cccnc43)[nH]c2cn1 [Example 274, (S)-5-methoxy-N-(4-(4-(trifluoromethoxy)phenyl)-3,4-dihydro-2H-pyrano[3,2-b]pyridin-4-yl)-1H-pyrrolo[2,3-c] pyridine-2-carboxamide formate]"
2,183 nM,"O=C(N[C@]1(c2ccc(OC(F)(F)F)cc2)CCOc2cccnc21)c1c[nH]c(=O)c2ccccc12 [Example 272, (S)-1-oxo-N-(4-(4-(trifluoromethoxy)phenyl)-3,4-dihydro-2H-pyrano[3,2-b]pyridin-4-yl)-1,2-dihydroisoquinoline-4-carboxamide formate]"
3,95 nM,"Cn1ncc2ccc(C(=O)N[C@]3(c4ccc(OC(F)(F)F)cc4)CCOc4cccnc43)cc21 [Example 263, (S)-1-methyl-N-(4-(4-(trifluoromethoxy)phenyl)-3,4-dihydro-2H-pyrano[3,2-b]pyridin-4-yl)-1H-indazole-6-carboxamide formate]"
4,71 nM,"O=C(N[C@]1(c2ccc(OC(F)(F)F)cc2)CCOc2cccnc21)c1csc2ccccc12 [Example 268, (S)-N-(4-(4-(trifluoromethoxy)phenyl)-3,4-dihydro-2H-pyrano[3,2-b]pyridin-4-yl) benzo[b]thiophene-3-carboxamide formate]"
5,44 nM,"Cn1nc2c(c1C(=O)N[C@]1(c3ccc(OC(F)(F)F)cc3)CCOc3cccnc31)CCCC2 [Example 270, (S)-2-methyl-N-(4-(4-(trifluoromethoxy)phenyl)-3,4-dihydro-2H-pyrano[3,2-b]pyridin-4-yl)-4,5,6,7-tetrahydro-2H-indazole-3-carboxamide formate]"
6,37 nM,"O=C(N[C@]1(c2ccc(OC(F)(F)F)cc2)CCOc2cccnc21)c1cc2ccccc2s1 [Example 267, (S)-N-(4-(4-(trifluoromethoxy)phenyl)-3,4-dihydro-2H-pyrano[3,2-b]pyridin-4-yl) benzo[b]thiophene-2-carboxamide formate]"
7,36 nM,"Cn1cc2cccc(C(=O)N[C@]3(c4ccc(OC(F)(F)F)cc4)CCOc4cccnc43)c2n1 [Example 266, (S)-2-methyl-N-(4-(4-(trifluoromethoxy)phenyl)-3,4-dihydro-2H-pyrano[3,2-b]pyridin-4-yl)-2H-indazole-7-carboxamide formate]"
8,34 nM,"Cn1ccc2cc(C(=O)N[C@]3(c4ccc(OC(F)(F)F)cc4)CCOc4cccnc43)ccc21 [Example 258, (S)-1-methyl-N-(4-(4-(trifluoromethoxy)phenyl)-3,4-dihydro-2H-pyrano[3,2-b]pyridin-4-yl)-1H-indole-5-carboxamide formate]"
9,25 nM,"O=C(N[C@]1(c2ccc(OC(F)(F)F)cc2)CCOc2cccnc21)c1ccc2cccnc2c1 [Example 254, (S)-N-(4-(4-(trifluoromethoxy)phenyl)-3,4-dihydro-2H-pyrano[3,2-b]pyridin-4-yl)quinoline-7-carboxamide fonnate]"
10,16 nM,"O=C(N[C@]1(c2ccc(OC(F)(F)F)cc2)CCOc2cccnc21)c1ccc2cc[nH]c(=O)c2c1 [Example 271, (S)-1-oxo-N-(4-(4-(trifluoromethoxy)phenyl)-3,4-dihydro-2H-pyrano[3,2-b]pyridin-4-yl)-1,2-dihydroisoquinoline-7-carboxamide formate]"
11,14 nM,"Cn1cc2ccc(C(=O)N[C@]3(c4ccc(OC(F)(F)F)cc4)CCOc4cccnc43)cc2n1 [Example 265, (S)-2-methyl-N-(4-(4-(trifluoromethoxy)phenyl)-3,4-dihydro-2H-pyrano[3,2-b]pyridin-4-yl)-2H-indazole-6-carboxamide formate]"
12,7 nM,"Cn1ncc2cc(C(=O)N[C@]3(c4ccc(OC(F)(F)F)cc4)CCOc4cccnc43)ccc21 [Example 262, (S)-1-methyl-N-(4-(4-(trifluoromethoxy)phenyl)-3,4-dihydro-2H-pyrano[3,2-b]pyridin-4-yl)-1H-indazole-5-carboxamide formate]"
13,4 nM,"O=C(N[C@]1(c2ccc(OC(F)(F)F)cc2)CCOc2cccnc21)c1ccc2ncccc2c1 [Example 253, (S)-N-(4-(4-(trifluoromethoxy)phenyl)-3,4-dihydro-2H-pyrano[3,2-b]pyridin-4-yl)quinoline-6-carboxamide formate]"

# From patent US20150031668A1, “CHROMAN DERIVATIVES AS TRPM8 INHIBITORS” (AMGEN INC., priority 2013, published 2015)
